# Data as given in ChEMBL document CHEMBL1201862, “PubChem BioAssay data set” (2004).
# The source made the active and inactive calls.
# How the values were obtained:
# Beta-galactosidase = Beta-galactosidase (Escherichia coli, UniProt Q8VNN2); assay: Dose response counterscreen for EBI2 assay utilizing the enzyme, b-galactosidase.; format: functional
# Fatty acid synthase [1] = biological target: T1, Fatty acid synthase (Homo sapiens, UniProt P49327); assay: inhibition of human FAS-TE enzyme activity – biochemical, endpoint fluorescence intensity, uHTS hits, dose response (AID 624327); format: functional;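 note: fluorescence from hydrolysis of an O-methyl fluorescein acyl ester substrate by the enzyme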
# Fatty acid synthase [2] = biological target: T1, Fatty acid synthase; assay: inhibition of human FAS-TE enzyme activity – biochemical, kinetic fluorescence intensity, dose response (AID 624326); format: functional;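 note: rate of fluorescence rise from hydrolysis of a fluorogenic O-methyl fluorescein ester substrate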
# [3] = biological target: T2, Mannose-6-phosphate isomerase (Homo sapiens, UniProt P34949); assay: MPI inhibition at elevated mannose 6-phosphate – biochemical, fluorescence intensity, high mannose 6-phosphate, primary screen (AID 1220)
# T2 sequence (P34949 whole entry): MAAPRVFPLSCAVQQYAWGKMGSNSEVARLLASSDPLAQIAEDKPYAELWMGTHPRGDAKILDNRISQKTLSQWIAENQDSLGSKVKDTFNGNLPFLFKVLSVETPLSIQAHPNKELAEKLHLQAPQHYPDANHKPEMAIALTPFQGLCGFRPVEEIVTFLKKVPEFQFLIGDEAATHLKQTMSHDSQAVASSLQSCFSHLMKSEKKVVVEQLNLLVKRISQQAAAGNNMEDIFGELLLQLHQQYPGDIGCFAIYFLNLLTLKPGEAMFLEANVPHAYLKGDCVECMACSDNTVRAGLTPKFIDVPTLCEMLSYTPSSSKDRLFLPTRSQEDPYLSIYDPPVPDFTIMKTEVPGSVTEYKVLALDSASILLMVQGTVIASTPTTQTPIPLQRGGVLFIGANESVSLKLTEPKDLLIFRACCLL
# [4] = biological target: T3, Replicative DNA helicase DnaB (Mycobacterium tuberculosis, UniProt P9WMR3); assay: DnaB intein splicing inhibitors, dose response, biochemical, cell-free fluorescence (AID 449749); format: functional
# T3 sequence (P9WMR3 whole entry): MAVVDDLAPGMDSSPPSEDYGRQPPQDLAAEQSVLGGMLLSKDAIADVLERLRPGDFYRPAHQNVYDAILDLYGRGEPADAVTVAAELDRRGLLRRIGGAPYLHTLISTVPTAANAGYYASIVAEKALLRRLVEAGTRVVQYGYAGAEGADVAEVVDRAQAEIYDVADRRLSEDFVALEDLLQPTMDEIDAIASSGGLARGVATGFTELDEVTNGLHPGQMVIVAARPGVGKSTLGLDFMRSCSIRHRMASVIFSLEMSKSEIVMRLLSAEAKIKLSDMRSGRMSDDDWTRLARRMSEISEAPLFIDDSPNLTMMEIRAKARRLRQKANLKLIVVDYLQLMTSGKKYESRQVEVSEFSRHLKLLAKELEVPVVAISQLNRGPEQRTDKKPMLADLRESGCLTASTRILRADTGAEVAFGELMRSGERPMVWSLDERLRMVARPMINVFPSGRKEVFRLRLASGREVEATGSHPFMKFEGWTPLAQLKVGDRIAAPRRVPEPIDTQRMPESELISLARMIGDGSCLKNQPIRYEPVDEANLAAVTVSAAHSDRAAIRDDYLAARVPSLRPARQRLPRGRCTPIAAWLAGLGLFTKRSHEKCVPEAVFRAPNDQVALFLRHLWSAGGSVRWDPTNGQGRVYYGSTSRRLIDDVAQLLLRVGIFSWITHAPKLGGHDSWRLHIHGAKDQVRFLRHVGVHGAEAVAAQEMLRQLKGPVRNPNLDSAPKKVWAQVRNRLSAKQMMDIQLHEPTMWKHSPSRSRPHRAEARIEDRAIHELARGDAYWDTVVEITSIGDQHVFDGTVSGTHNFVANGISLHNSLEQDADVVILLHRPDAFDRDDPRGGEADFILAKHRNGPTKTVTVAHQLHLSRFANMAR
# Protein RecA = biological target: T4, Protein RecA (Mycobacterium tuberculosis, UniProt P9WHJ3); assay: Fluorescence Cell-Free Homogeneous Dose Retest to Identify Inhibitors of RecA-Intein Splicing Activity. [Related pubchem assays (depositor defined):AID2097, AID2223, AID489010, AID492950]; format: functional
# T4 sequence (P9WHJ3 whole entry): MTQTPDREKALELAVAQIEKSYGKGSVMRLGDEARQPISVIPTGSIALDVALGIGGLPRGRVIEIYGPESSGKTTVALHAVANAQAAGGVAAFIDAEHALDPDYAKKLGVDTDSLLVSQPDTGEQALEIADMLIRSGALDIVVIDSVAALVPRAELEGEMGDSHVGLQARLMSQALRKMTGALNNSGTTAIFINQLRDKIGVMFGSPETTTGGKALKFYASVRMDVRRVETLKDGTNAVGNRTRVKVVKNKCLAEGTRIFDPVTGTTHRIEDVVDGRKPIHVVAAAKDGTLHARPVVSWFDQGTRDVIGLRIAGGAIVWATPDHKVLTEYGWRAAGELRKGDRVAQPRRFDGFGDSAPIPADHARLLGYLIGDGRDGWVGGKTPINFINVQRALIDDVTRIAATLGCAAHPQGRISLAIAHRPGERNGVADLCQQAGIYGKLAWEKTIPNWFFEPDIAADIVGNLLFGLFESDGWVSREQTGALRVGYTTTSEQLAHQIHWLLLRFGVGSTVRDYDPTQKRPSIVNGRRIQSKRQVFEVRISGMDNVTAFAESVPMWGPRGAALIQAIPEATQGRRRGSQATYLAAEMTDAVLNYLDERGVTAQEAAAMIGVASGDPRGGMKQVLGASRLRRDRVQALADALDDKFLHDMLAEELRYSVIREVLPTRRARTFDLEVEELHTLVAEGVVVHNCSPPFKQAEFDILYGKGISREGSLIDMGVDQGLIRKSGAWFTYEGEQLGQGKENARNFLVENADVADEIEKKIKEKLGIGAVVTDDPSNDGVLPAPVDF
# Leucine aminopeptidase = biological target: T5, Leucine aminopeptidase (Plasmodium falciparum 3D7, UniProt Q8IL11); assay: P. falciparum M17LAP inhibitors, primary screen, biochemical, fluorogenic H-Leu-NHMec substrate, 1536-well (AID 1619); format: functional
# T5 sequence (Q8IL11 whole entry): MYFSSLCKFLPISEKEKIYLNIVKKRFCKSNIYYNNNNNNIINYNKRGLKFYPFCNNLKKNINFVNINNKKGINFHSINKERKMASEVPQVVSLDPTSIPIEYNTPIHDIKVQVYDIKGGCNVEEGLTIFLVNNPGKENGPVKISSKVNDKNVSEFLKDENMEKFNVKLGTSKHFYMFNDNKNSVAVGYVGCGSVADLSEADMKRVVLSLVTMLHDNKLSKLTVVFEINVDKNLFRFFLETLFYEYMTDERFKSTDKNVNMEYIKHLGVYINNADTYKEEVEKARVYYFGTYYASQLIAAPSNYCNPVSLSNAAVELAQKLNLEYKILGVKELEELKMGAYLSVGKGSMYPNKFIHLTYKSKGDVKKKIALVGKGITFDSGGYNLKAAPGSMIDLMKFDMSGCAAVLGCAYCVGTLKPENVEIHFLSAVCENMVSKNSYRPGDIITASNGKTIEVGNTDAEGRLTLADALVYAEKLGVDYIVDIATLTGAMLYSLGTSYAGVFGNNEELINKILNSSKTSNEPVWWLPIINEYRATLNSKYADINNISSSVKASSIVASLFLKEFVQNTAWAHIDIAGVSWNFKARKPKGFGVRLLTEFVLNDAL
# Estrogen receptor beta [5] = biological target: T6, Estrogen receptor beta (Homo sapiens, UniProt Q92731);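 note: recombinant ER-beta bound to coactivator SRC1 peptide in presence of estradiol agonist; inhibitors block coactivator peptide binding and lower the FRET signal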
# Estrogen receptor beta [6] = biological target: T6, Estrogen receptor beta; assay: blockers of SRC-3 recruitment to ERβ – biochemical, ELISA, streptavidin-HRP readout, orthogonal assay, confirmation (AID 1060)
# [7] = biological target: T7, Polyadenylate-binding protein 1 (Homo sapiens, UniProt P11940); assay: MLLE binding blockers, Cy5 peptide tracer – biochemical, fluorescence polarization, Cy5-PAM2 peptide, secondary, miRNA deadenylation inhibitor project, dose response (AID 602260); format: functional; settings: read-out: IC50_Mean
# [8] = biological target: T7, Polyadenylate-binding protein 1; assay: MLLE domain peptide-binding blockers, IC50 – biochemical, fluorescence polarization, FITC-PAM2 peptide, dose response (AID 602259); format: functional; settings: read-out: IC50_Mean
# [9] = intracellular Trypanosoma cruzi inhibitors in host cells – cell-based, plate reader, cherry-pick samples, set 3, dose response (AID 651818); format: functional;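 note: compounds incubated with infected cells for about four days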
# [10] = THP-1 cell cytotoxicity, dose response, cytotoxicity control for non-replicating M. tuberculosis project (AID 489025); format: functional
# [11] = biological target: T8, Ubiquitin-conjugating enzyme E2 N (Homo sapiens, UniProt P61088); format: functional;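 note: Dose-response confirmation in a TR-FRET assay detecting UBC13-driven polyubiquitin chain formation, inhibition measured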
# T8 sequence (P61088 whole entry): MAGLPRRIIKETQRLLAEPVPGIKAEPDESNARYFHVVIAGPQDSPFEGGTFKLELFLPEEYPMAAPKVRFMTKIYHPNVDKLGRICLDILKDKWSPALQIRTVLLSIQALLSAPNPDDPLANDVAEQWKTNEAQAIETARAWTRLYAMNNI
# cells = format: functional
# Protein Wnt-3a = Protein Wnt-3a (Mus musculus, UniProt P27467); assay: antagonism of Wnt3a pathway luciferase reporter – Wnt-LIGHT cells, luminescence, selectivity assay for Gli-SUFU antagonist project, dose response (AID 651570); format: functional; settings: read-out: IC50_Mean;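 note: Wnt-LIGHT reporter cells stimulated with conditioned medium from Wnt3a-producing cells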
# [12] = blockers of HIV-1 envelope-mediated cell-cell fusion – cherry-pick, dose response (AID 652057); format: functional, cell-based
# [13] = blockers of HIV-1 ZM109 envelope-driven cell-cell fusion – HeLa effector, CEM target cells, luciferase, cherry-pick, dose response (AID 652058); format: functional, cell-based;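 note: luciferase signal from HIV-1 Env mediated cell-cell fusion of effector and target cells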
# [14] = HIV-1 AD8 envelope cell-cell fusion blockers – cherry-pick, dose response (AID 652062); format: functional, cell-based;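 note: luciferase signal from cell-cell fusion driven by HIV-1 clade B AD8 Env; potency is for inhibitors of fusion seen as a drop in luminescence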
# Vero = assay: viability of Vero cells under compound – cytotoxicity control for flavivirus capping enzyme inhibitors (AID 588742); format: functional; settings: Chlorocebus sabaeus
# Chain of Beta-galactosidase (Q8VNN2 whole entry): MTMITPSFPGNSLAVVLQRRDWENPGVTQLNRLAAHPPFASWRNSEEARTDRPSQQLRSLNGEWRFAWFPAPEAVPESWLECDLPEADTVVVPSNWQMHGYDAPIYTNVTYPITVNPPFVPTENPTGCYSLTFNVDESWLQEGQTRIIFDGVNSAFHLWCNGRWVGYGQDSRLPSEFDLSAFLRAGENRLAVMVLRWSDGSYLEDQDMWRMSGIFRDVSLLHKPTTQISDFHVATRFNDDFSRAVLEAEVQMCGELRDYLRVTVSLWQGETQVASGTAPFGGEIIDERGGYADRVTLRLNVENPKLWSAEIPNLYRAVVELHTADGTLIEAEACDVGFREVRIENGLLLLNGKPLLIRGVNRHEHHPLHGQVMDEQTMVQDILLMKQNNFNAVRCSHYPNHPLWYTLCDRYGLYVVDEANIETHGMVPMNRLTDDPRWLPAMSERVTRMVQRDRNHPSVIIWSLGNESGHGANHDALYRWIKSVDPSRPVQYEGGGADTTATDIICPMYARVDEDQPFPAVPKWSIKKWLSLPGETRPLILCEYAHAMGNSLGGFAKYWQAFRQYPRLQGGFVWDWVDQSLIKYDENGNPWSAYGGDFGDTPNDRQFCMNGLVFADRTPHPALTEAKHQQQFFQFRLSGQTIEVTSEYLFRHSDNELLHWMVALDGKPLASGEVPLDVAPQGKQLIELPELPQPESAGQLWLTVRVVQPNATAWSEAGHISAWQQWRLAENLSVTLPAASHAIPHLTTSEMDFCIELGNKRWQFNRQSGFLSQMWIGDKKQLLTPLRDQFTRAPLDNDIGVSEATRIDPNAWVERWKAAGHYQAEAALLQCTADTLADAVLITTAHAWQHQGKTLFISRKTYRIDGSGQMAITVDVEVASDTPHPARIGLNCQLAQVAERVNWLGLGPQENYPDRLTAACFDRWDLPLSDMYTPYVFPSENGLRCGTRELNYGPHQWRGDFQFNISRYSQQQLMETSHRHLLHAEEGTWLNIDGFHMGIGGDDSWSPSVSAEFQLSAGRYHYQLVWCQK
# T1 sequence (P49327 whole entry): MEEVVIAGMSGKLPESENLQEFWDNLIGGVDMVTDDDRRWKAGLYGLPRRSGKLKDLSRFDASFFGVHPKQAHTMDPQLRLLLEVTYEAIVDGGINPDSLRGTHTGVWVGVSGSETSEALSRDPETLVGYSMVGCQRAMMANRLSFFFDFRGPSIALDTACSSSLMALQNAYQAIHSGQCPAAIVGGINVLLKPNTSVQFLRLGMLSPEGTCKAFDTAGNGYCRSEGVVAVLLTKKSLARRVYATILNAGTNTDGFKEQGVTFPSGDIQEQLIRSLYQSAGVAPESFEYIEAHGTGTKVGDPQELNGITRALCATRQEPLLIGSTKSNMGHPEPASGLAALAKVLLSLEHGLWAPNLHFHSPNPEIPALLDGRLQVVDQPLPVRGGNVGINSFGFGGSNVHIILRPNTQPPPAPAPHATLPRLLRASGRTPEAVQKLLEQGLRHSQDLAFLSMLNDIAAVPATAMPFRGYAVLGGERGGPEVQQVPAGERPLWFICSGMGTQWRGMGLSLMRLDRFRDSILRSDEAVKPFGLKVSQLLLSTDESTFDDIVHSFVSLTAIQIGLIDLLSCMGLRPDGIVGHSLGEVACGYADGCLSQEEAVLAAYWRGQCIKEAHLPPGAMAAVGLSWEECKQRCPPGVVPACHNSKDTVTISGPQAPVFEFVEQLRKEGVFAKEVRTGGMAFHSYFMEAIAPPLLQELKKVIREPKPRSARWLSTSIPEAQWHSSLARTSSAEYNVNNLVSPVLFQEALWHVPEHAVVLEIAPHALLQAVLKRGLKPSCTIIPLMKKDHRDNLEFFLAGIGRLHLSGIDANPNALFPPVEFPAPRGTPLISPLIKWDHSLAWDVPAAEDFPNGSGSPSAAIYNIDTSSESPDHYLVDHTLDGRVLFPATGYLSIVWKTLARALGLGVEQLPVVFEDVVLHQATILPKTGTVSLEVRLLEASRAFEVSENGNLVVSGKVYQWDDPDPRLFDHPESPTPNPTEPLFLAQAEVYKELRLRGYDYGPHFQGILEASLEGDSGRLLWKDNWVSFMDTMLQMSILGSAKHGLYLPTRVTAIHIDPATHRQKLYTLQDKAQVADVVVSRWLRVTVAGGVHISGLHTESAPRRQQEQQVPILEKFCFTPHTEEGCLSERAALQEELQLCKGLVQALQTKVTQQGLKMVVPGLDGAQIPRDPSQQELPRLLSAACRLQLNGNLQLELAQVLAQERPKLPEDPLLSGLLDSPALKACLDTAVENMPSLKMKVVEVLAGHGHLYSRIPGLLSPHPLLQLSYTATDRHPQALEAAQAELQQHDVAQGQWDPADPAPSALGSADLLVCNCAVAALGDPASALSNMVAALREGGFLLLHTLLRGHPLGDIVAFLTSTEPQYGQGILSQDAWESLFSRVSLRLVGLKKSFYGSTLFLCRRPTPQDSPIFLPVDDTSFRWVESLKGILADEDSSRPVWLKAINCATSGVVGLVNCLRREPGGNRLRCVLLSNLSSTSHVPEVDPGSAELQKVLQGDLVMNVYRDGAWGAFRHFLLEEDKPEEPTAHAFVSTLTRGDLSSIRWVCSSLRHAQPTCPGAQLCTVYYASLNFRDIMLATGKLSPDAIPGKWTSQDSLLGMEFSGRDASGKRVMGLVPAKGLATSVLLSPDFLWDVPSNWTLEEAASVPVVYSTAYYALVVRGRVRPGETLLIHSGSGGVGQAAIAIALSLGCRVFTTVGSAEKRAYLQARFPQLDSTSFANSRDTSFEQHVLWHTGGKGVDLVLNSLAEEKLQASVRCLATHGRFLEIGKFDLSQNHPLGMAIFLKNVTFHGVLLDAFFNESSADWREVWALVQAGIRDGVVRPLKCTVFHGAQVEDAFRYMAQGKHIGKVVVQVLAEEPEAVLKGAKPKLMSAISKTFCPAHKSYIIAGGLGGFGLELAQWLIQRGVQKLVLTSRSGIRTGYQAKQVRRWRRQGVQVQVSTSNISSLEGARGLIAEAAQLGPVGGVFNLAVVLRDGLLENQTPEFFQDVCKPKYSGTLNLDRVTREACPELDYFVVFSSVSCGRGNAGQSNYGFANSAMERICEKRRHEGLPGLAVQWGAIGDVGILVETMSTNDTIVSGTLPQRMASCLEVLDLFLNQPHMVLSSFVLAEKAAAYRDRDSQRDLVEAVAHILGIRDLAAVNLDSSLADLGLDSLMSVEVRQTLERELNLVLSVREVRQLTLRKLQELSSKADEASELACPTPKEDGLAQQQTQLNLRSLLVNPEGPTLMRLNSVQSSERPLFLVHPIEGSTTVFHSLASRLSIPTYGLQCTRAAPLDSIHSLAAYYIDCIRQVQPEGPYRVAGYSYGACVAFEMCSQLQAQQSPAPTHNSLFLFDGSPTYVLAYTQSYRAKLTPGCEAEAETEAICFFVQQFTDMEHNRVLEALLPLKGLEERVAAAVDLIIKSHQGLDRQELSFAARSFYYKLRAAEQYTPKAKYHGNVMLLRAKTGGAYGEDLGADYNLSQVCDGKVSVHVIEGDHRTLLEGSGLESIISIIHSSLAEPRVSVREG
# T6 sequence (Q92731 whole entry): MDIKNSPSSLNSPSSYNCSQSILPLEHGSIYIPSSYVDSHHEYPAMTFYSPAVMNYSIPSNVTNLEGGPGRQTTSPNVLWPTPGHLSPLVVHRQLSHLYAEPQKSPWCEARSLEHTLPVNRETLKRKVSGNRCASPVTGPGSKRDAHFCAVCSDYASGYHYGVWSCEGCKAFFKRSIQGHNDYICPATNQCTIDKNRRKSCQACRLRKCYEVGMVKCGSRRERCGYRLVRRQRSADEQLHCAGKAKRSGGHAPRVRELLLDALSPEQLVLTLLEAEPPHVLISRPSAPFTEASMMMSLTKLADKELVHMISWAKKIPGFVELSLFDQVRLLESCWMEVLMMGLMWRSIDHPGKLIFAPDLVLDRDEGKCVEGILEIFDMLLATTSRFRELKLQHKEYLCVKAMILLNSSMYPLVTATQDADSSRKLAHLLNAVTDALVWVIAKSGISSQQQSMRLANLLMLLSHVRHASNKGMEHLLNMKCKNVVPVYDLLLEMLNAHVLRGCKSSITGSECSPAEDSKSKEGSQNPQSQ
# T7 sequence (P11940 whole entry, the tested form may be a part): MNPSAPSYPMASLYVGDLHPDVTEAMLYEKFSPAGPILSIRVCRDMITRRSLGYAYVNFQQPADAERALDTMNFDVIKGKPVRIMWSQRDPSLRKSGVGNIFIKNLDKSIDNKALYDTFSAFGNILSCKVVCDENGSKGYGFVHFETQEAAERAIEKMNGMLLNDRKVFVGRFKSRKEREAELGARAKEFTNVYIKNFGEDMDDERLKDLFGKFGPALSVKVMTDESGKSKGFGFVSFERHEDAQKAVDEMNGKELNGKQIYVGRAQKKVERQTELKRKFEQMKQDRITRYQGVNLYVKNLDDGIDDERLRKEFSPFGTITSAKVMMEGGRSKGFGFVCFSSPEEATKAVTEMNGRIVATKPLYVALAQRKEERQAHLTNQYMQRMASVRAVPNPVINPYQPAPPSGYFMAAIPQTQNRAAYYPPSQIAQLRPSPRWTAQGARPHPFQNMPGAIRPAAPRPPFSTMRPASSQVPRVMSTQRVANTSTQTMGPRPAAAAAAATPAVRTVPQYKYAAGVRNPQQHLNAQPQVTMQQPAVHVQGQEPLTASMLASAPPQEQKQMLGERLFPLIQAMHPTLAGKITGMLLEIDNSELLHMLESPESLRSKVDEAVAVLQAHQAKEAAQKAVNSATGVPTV
# Chain of Protein Wnt-3a (P27467 whole entry, the tested form may be a part): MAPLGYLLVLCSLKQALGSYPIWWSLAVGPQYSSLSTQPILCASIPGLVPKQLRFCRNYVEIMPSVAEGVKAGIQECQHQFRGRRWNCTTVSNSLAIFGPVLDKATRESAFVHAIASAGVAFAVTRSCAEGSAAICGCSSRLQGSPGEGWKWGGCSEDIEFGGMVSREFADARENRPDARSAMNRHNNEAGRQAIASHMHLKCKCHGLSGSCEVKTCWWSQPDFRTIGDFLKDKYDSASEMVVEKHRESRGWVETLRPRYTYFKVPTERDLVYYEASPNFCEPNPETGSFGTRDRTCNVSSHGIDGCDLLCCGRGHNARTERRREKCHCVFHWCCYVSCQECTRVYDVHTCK
smiles,measurement,setting,value
COc1ccc(/C=C(\C#N)C(=O)Nc2cc(S(=O)(=O)N3CCOCC3)ccc2N2CCCC2)cc1,IC50,Beta-galactosidase,> 80 µM (inactive)
CN(CCOc1ccccc1)CC(=O)Nc1ccc([N+](=O)[O-])cc1Cl,IC50,Fatty acid synthase [1],9.54 µM (active)
same,IC50,Fatty acid synthase [2],12.7 µM (active)
O=C(/C=C/c1ccccc1)N1CCN(c2cccc(Cl)n2)CC1,IC50,Beta-galactosidase,> 80 µM (inactive)
COc1ccc2ccc3c(c2c1)N=CC1(O3)N(C)c2ccccc2C1(C)C (centres undefined),IC50,[3],> 50 µM (not active)
same,AC50,[4],2.96 µM (active)
same,EC50,Protein RecA,36.2 µM (active)
O=C(CSc1ccc([N+](=O)[O-])cn1)Nc1ccc2c(c1)OCCO2,IC50,Fatty acid synthase [1],1.51 µM (active)
same,IC50,Fatty acid synthase [2],4.17 µM (active)
COc1cccc(-c2[nH]nc3c2C(c2ccoc2)C(C#N)=C(N)O3)c1 (centres undefined),IC50,Leucine aminopeptidase,76.8 µM (active)
same,IC50,Estrogen receptor beta [5],20 µM (active)
same,IC50,Estrogen receptor beta [6],> 50 µM (not active)
same,AC50,[4],8.72 µM (active)
same,EC50,Protein RecA,1.07 µM (active)
COc1ccc(-c2nn(CCC#N)cc2C(=O)Nc2ccc(C(C)=O)cc2)cc1[N+](=O)[O-],IC50,Fatty acid synthase [1],1.41 µM (active)
same,IC50,Fatty acid synthase [2],4.1 µM (active)
O=C(c1cc(COc2cccc(C(F)(F)F)c2)on1)N1C[C@@H]2CCC[C@H]1C2,IC50,Fatty acid synthase [1],12.4 µM (active)
same,IC50,Fatty acid synthase [2],10.7 µM (active)
CCOC(=O)c1c(-c2cccs2)csc1N,IC50,[3],> 50 µM (not active)
Nc1ccc2c(c1)OC1(CCCCC1)O2,IC50,[3],> 50 µM (not active)
Nc1c(-c2cccc(Cl)c2)cnn1-c1cccc([N+](=O)[O-])c1,IC50,Fatty acid synthase [1],11 µM (active)
same,IC50,Fatty acid synthase [2],12 µM (active)
CCCc1nn(-c2ccccc2)c2c1C(c1cccs1)C(C#N)=C(N)O2 (centres undefined),AC50,[4],12.6 µM (active)
same,EC50,Protein RecA,3.58 µM (active)
same,IC50,Beta-galactosidase,> 80 µM (inactive)
CCOC(=O)COc1ccc2c(C#N)c3ccccn3c2c1,IC50,[3],> 50 µM (not active)
same,IC50,[7],> 66 µM (inactive)
same,IC50,[8],> 66 µM (inactive)
CCc1ccc2oc(C(=O)N3CCN(c4ccccc4OC)CC3)cc(=O)c2c1,IC50,Beta-galactosidase,> 80 µM (inactive)
NC(=O)c1ccsc1NC(=O)COC(=O)Cc1ccsc1,IC50,Estrogen receptor beta [5],5.55 µM (active)
same,IC50,Estrogen receptor beta [6],1.84 µM (not active)
C[C@@H]1CN([C@H](C)CO)C(=O)c2cc(NC(=O)Nc3ccc(C(F)(F)F)cc3)ccc2O[C@H]1CN(C)S(=O)(=O)c1ccccc1,AC50,[9],7.36 µM (active)
CCC(C)[C@H]1CN=C(N)N1CCc1cccc2ccccc12 (some centres undefined),CC50,[10],15.8 µM (active)
same,IC50,[11],> 20 µM (inactive)
same,IC50,cells,22.5 µM (active)
same,IC50,Protein Wnt-3a,6.06 µM (active)
C[C@@H]1CN([C@@H](C)CO)C(=O)c2cc(NS(=O)(=O)c3ccc(Cl)cc3)ccc2O[C@@H]1CN(C)Cc1ccc(-c2ccccc2)cc1,AC50,[9],3.31 µM (active)
C[C@@H]1CCCCO[C@@H](CN(C)Cc2ccc(Cl)c(Cl)c2)[C@@H](C)CN([C@H](C)CO)C(=O)c2cc(NC(=O)C3CCCCC3)ccc2O1,AC50,[9],2.9 µM (active)
C[C@H]1CN([C@@H](C)CO)C(=O)c2cc(NC(=O)Cc3cn(C)c4ccccc34)ccc2O[C@H]1CN(C)Cc1ccc(-c2ccccc2)cc1,AC50,[9],3.27 µM (active)
Cc1ccc(S(=O)(=O)N(C)C[C@@H]2Oc3cc(Br)ccc3S(=O)(=O)N([C@H](C)CO)C[C@@H]2C)cc1,AC50,[12],4.58 µM (active)
same,AC50,[13],7.1 µM (active)
same,AC50,[14],26.6 µM (active)
COc1cc(/C=N/NC(=O)c2cc3ccccc3cc2O)ccc1OCCN1CCCCC1,IC50,[3],> 50 µM (not active)
same,CC50,Vero,> 40 µM (active)
